Laboratory results reported in ChEMBL document CHEMBL1156472, “Structural variation governs substrate specificity for organic anion transporter (OAT) homologs. Potential remote sensing by OAT family members” (J Biol Chem, 2007).

What follows are compounds tested against T1, Solute carrier family 22 member 20 (Mus musculus, UniProt Q80UJ1) (assay: Inhibition of mouse Oat6-mediated [3H]ES uptake in Xenopus oocytes after 1 hr). Conditions: read-out: Ki.
T1 sequence (Q80UJ1 whole entry): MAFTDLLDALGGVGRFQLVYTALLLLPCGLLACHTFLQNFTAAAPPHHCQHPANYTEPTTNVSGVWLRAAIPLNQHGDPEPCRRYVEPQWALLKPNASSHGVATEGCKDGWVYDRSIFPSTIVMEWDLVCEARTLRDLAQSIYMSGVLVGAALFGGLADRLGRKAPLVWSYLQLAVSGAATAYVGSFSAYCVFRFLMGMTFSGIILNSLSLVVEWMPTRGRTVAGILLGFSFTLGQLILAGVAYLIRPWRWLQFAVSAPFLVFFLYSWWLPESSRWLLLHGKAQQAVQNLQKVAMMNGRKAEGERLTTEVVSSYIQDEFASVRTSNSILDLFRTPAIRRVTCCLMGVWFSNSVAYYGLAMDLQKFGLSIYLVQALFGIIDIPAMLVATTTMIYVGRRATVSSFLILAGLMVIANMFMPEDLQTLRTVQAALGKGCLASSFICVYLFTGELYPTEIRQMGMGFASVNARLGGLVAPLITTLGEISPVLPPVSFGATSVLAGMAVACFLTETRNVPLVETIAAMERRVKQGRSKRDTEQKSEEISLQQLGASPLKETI
Format: cell-based, Oocyte

Ki [µM] | SMILES
315 | CC(C)C(O)C(=O)O (stereo not drawn)
182 | O=C(O)C(O)Cc1ccc(O)cc1 (stereo not drawn)
27800 | CC(=O)NC(CC(=O)O)C(=O)O (stereo not drawn)
597 | CN(Cc1cnc2nc(N)nc(N)c2n1)c1ccc(C(=O)NC(CCC(=O)O)C(=O)O)cc1 (single isomer, unassigned) [METHOTREXATE]
452 | CC1(C)S[C@@H]2[C@H](NC(=O)Cc3ccccc3)C(=O)N2[C@H]1C(=O)O (single isomer, unassigned) [PENICILLIN G SODIUM]
6.6 | CCCCC(CC)C(=O)O (stereo not drawn) [2-ETHYLHEXANOIC ACID]
191 | CC(O)CC(=O)O (stereo not drawn) [3-HYDROXYBUTYRIC ACID, (+/-)-]
66 | O=C(O)C(=O)Cc1ccc(O)cc1 [4-HYDROXYPHENYLPYRUVIC ACID]
1580 | O=C(O)CCCCC(=O)O [ADIPIC ACID]
446 | Nc1ccc(C(=O)NCC(=O)O)cc1 [AMINOHIPPURIC ACID]
101 | CC(=O)Oc1ccccc1C(=O)O [ASPIRIN]
1330 | CC1(C)S[C@@H]2[C@H](NC(=O)C(C(=O)O)c3ccccc3)C(=O)N2[C@H]1C(=O)O (stereo partly drawn) [CARBENICILLIN DISODIUM]
18 | CCCCC[C@H](O)/C=C/[C@H]1[C@H](O)CC(=O)[C@@H]1C/C=C\CCCC(=O)O [DINOPROSTONE]
58 | C[C@]12CC[C@@H]3c4ccc(OS(=O)(=O)O)cc4CC[C@H]3[C@@H]1CCC2=O [ESTRONE SULFURIC ACID]
99 | O=C1OC2(c3ccc(O)cc3Oc3cc(O)ccc32)c2ccccc21 [FLUORESCEIN]
> 30000 | O=C(O)/C=C/C(=O)O [FUMARIC ACID]
5410 | O=C(O)CCCC(=O)O [GLUTARATE]
8.2 | CCCCCCC(=O)O [HEPTANOATE]
9 | CCCCCC(=O)O [HEXANOATE]
312 | O=C(O)CNC(=O)c1ccccc1 [HIPPURIC ACID]
1.1 | CC(C)Cc1ccc(C(C)C(=O)O)cc1 (stereo not drawn) [IBUPROFEN]
1130 | O=C(O)CCCCCCC(=O)O [OCTANEDIOATE]
29 | O=C(O)C(=O)Cc1ccccc1 [PHENYLPYRUVATE]
8.4 | CCCN(CCC)S(=O)(=O)c1ccc(C(=O)O)cc1 [PROBENECID]
279 | CCC(=O)O [PROPIONIC ACID]
271 | CC(=O)C(=O)O [PYRUVATE]
533 | CC1(C)S[C@@H]2[C@H](NC(=O)[C@H](C(=O)O)c3ccsc3)C(=O)N2[C@H]1C(=O)O [TICARCILLIN]

SMILES | Ki [µM]
O=C(O)c1ccccc1-c1c2cc(Br)c(=O)c(Br)c-2oc2c(Br)c(O)c(Br)cc12 | 4.4
CC(C)CC(=O)O [3-METHYLBUTANOIC ACID] | 32.3
C[C@@H]1Cc2c(Cl)cc(C(=O)N[C@@H](Cc3ccccc3)C(=O)O)c(O)c2C(=O)O1 [3R14S-OCHRATOXIN A] | 49
O=C(O)c1ccccc1 [BENZOIC ACID] | 13.8
CCCC(=O)O [BUTYRIC ACID] | 82
C[C@]12CC[C@@H]3c4ccc(OS(=O)(=O)O)cc4CC[C@H]3[C@@H]1CC[C@@H]2OS(=O)(=O)O [ESTRADIOL DISULFATE] | 7210
O=C(O)c1ccccc1O [SALICYLIC ACID] | 44

Same assay, conditions: read-out: pKi (converted)

Ki [µM] | SMILES
316 | CC(C)[C@H](O)C(=O)O
6.61 | CCCC[C@H](CC)C(=O)O
6.61 | CCCC[C@@H](CC)C(=O)O
182 | O=C(O)[C@@H](O)Cc1ccc(O)cc1
27500 | CC(=O)N[C@@H](CC(=O)O)C(=O)O
191 | C[C@H](O)CC(=O)O
191 | C[C@@H](O)CC(=O)O [(R)-3-HYDROXYBUTANOATE]
316 | CC(C)[C@@H](O)C(=O)O [DEAMINOHYDROXYVALINE]
> 31600 | O=C(O)/C=C/C(=O)O [FUMARIC ACID]

These compounds were tested against T1, Solute carrier family 22 member 20 (assay: Activity of mouse Oat6 expressed in Xenopus oocytes assessed as drug uptake). Conditions: oocyte.
Format: cell-based

Vmax [pmol/h] | SMILES
4.6 | Nc1ccc(C(=O)NCC(=O)O)cc1 [AMINOHIPPURIC ACID]
0.9 | CCCCC[C@H](O)/C=C/[C@H]1[C@H](O)CC(=O)[C@@H]1C/C=C\CCCC(=O)O [DINOPROSTONE]
40 | C[C@]12CC[C@@H]3c4ccc(OS(=O)(=O)O)cc4CC[C@H]3[C@@H]1CCC2=O [ESTRONE SULFURIC ACID]
0.28 | CC(C)Cc1ccc(C(C)C(=O)O)cc1 (stereo not drawn) [IBUPROFEN]

SMILES | Vmax [pmol/h]
C[C@@H]1Cc2c(Cl)cc(C(=O)N[C@@H](Cc3ccccc3)C(=O)O)c(O)c2C(=O)O1 [3R14S-OCHRATOXIN A] | 4.8
